Literature values as cited in US10231947B2, “Isochroman compounds and methods of use thereof” (ARIZONA BOARD OF REGENTS ON BEHALF OF ARIZONA STATE …, priority 2017, dated 2019).

Assays:
hRXR [1] = settings: Caco-2 cells
hRXR [2] = settings: Caco-2 cells; remark: listed apart in the source
hRXRβ = hRXRβ (Homo sapiens, UniProt P28702); settings: read-out: EC50 for the hRXRβ isoform
Sequence of hRXRβ (P28702 whole entry, canonical isoform): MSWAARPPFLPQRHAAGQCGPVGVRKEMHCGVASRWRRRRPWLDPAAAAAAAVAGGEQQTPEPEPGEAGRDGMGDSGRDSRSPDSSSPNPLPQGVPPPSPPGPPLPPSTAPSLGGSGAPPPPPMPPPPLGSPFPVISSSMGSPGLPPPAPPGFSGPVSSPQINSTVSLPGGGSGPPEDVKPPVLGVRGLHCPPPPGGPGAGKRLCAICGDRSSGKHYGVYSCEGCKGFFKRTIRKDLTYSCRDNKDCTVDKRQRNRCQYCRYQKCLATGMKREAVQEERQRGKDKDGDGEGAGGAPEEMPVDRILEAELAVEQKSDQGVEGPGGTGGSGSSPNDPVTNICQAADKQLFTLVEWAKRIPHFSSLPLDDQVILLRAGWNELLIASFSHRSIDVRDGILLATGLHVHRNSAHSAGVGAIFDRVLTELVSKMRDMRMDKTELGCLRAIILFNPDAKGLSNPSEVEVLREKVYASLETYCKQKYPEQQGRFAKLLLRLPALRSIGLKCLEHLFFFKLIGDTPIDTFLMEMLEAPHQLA

Structure (SMILES): C=C(c1ccc(C(=O)O)c(F)c1)c1cc2c(cc1C)C(C)(C)CCC2(C)C [compound 3]
- EC50 (hRXR [1]): 43 nM
- Kd (hRXR [2]): 12 nM

Structure (SMILES): Cc1cc2c(cc1-c1cc(/C=C/C(=O)O)ccc1O)C(C)(C)CCC2(C)C [CD3254]
- EC50 (hRXRβ): ~10 nM
